Experimental data: patent US20050147698A1, “Co-beadlet of dha and rosemary and methods of use” (Alcon, Inc., priority 2003, published 2005)

Tested on: retinas
Test: protection of retinas from acute light-induced toxicity
Assay type: in vivo
Conditions: no data or method given

Vitamin E
protection of retinas from acute light-induced toxicity: effective in protecting retinas from acute light-induced toxicity
